In patent US6642003B2, “Human glucose-dependent insulin-secreting cell line” (Cedars-Sinai Medical Center, priority 2001, dated 2003):

What was measured:
[1] = tested on: ARIP cells; test: Insulin release into culture medium (RIA), ARIP cells; format: cell-based, rat
Experimental: (§1) Rat (ARIP) and human (PANC-1) ductal cell lines were respectively a gift from Dr. J. M. Egan (National Institute on Aging, Baltimore, Md.) or purchased from ATCC (American Type Culture Collection; Manassas, Va.). ARIP cells were cultured in F12 medium (Gibco-BRL, Gaithersburg; Md.) containing 100 μg/ml penicillin, 50 μg/ml streptomycin and 10% fetal calf serum (FCS; Gibco-BRL) at 37° C. under a humidified condition of 95% air and 5% CO2. PANC-1 cells were cultured in DMEM medium supplemented with antibiotics and FCS, as indicated for F12 medium. Treatment with human GLP-1 (H-6795, Bachem; King of Prussia, Pa.) was carried out using cells grown to 80% of confluence, after washing the cell layer with serum-free medium and a “wash-out” incubation for 6-h with serum free medium. To determine dose response to GLP-1, cells were cultured with fresh serum-free medium containing increasing concentration of GLP-1 (0.1, 1, 10, 20 nM), or vehicle alone. At the completion of the experiment, media and cells were collected. To determine the time course of response, cells were cultured in serum-free medium with GLP-1 (10 nM) for 0, 12, 24, 48, 72 or 96 h. Control dishes were cultured with vehicle alone, or with the peptide receptor antagonist of GLP-1, Exendin-9 (100 nM) for 72 h (gift Dr. J. M. Egan). The glucose concentration in the culture medium was 12 mM for both cell lines.
(§2) PANC-1 (parental, IDX-1-transfected, and neomycin-transfected) cells and ARIP (only parental) cells were plated at density of 10^6 cells/well in a 6 well plate. Once the cells reached 80% of confluence, they were washed with serum-free medium containing 12 mM glucose and exposed to fresh serum-free medium for increasing length of time (0, 12, 24, 48, 72, 96 h) in the presence of various concentrations of GLP-1 (0.1, 1, 10, 20 nM) or vehicle. Glucose-dependent insulin secretion was evaluated by culturing the cells in the presence of a determined concentration of GLP-1 (10 nM for 72 h) with increasing concentration of glucose in the culture medium ([…]). Insulin released into the medium was measured by RIA (Linco Research Inc.; St. Charles, Mass.). Total insulin accumulation in the culture medium was then normalized for total cellular protein content per each Individual cultures.
(§3) Total cellular protein content was measured by utilizing the Bradford method (Bio-Rad; Richmond, Calif.). The amount of proteins measured was used as a correction factor for determining the relative amount of medium to be assayed for each individual RIA for insulin.

[2] = tested on: ARIP cells; test: RT-PCR of islet β-cell specific transcripts, ARIP cells; format: cell-based, rat
Experimental: After the treatment of ARIP and PANC-1 cells with GLP-1, Exendin-9, or vehicle, for the described length of time and the various doses, the culture medium was removed and the cells were washed (twice) with serum-free medium. Total RNA was isolated using the TRiazol-method (Gibco-BRL), and treated with DNase (Amplification Grade, GibcoBRL) in 20 mmol/l Tris-HCL (pH 8.4), 2 mmol/l MgCl2, and 50 mmol/l KCl to remove any traces of contaminating genomic DNA. RNA (2.5 μg) was then subjected to reverse transcription (RT reagents; Promega; Madison, Wis.). RT-PCR was undertaken in a volume of 50 μl of buffer containing 50 mmol/l KCl, 10 mmol/l Tris-HCl, 3.5 mmol/l MgCl2, 200 μmol/l each dNTPs, and 0.4 μmol/l each of sense and antisense primers to rat or human insulin (depending on the specific cell from which the RNA was extracted). Amplification was performed for 30 cycles at the denaturing temperature of 94° C. for 1 min, annealing temperature of 60° C. for 45 sec, and an extension temperature of 72° C. for 1 min. […] These included more irregular and variable cell shapes, with a cytoplasm less homogenous and “rougher” in appearance than control culture.
Treatment with GLP-1 induces the differentiation of ductal epithelial cells into insulin-producing cells. FIG. 2 illustrates a series of cell cultures grown with or without GLP-1 (10 nM) for 72 h. […] Preabsorption of the antibody with an excess of human recombinant insulin prevented the staining of insulin-positive GLP-1 treated cells (data not shown). While treatment with GLP-1 turned the majority of ARIP cells into […] For β-actin, the annealing temperature was raised to 64° C. for 1 min and gene-specific primers were used. For GLP-1-receptor (GLP-R) the annealing temperature used was 55° C. All other experimental conditions to amplify GLUT2, glucokinase, and GLP-R mRNAs were identical to those described for the amplification of insulin mRNA. RT and PCR conditions for human transcripts were identical to those described for rat mRNAs.
Southern blotting with species-specific full length cDNA probes for insulin, GLUT-2, glucokinase, GLP-1 receptor and β-actin was performed as previously described. Y. Wang, R. Perfetti, N. H. Greig, H. W. Holloway, K. A. DeOre, C. Montrose-Rafizadeh, D. Elahi, J. M. Egan, “Glucagon-like peptide-1 can reverse the age-related decline in glucose tolerance in rats.” J Clin Invest 99:2883-2889, 1997.

[3] = tested on: PANC-1/IDX-1 cells; test: Insulin release into culture medium (RIA), PANC-1 cells transfected with human IDX-1; format: cell-based
Experimental: as §1
PANC-1 cells were transfected with a pcDNA3 construct (Invitrogen; Carlsbad, Calif.) harboring the wild-type full-length IDX-1 cDNA using LipoTAXI (Catalog N. 204110; Mammalian Transfection Kit, Stratagene; La Jolla, Calif.). Control cells were transfected with the vector alone. The selection of positive (i.e. transfected) cells was carried out by culturing the cells in the presence of 400 μg/ml of G418 sulfate (GN-04, Omega; Tarzana, Calif.).
as §2, §3

[4] = GLP-1 10 nM for 72 h, increasing glucose
[5] = serum-free medium, 12 mM glucose, 72 h

In the case of glucagon-like peptide-1 [GLP-1], the “lowest concentration of glucose required to induce the secretion of insulin” value ([1]; GLP-1 10 nM for 72 h) was 3 mM, the “glucose dependence of insulin release” value [1, 4] was “release insulin in a glucose-dependent manner” and the “time of maximal insulin secretion” value ([1]; GLP-1 10 nM, 12 mM glucose) was 48 h. For the same substance, the “time of plateau of insulin secretion” value ([1]; GLP-1 10 nM, 12 mM glucose) was 72 h, the “GLP-1 concentration at plateau of insulin accumulation in the culture medium” value [1, 5] was 20 nM and the “minimum concentration of GLP-1 required to transform ARIP ductal cells into insulin producing cells” value [1, 5] was 1 nM. For the same substance, the “time of first detection of GLUT2 mRNA” value ([2]; GLP-1 10 nM) was 24 h, the “time of first detection of glucokinase mRNA” value ([2]; GLP-1 10 nM) was 72 h and the “time of first detection of insulin mRNA” value ([2]; GLP-1 10 nM) was 48 h. For the same substance, the “lowest concentration of GLP-1 required for the initial detection of insulin mRNA” value ([2]; data not shown) was 1 nM, the “lowest concentration of glucose required to induce the secretion of insulin” value ([3]; GLP-1 10 nM for 72 h) was 3 mM and the “glucose dependence of insulin release” value [3, 4] was “release insulin in a glucose-dependent manner”. The “time of peak insulin secretion” value ([3]; GLP-1 10 nM, 12 mM glucose) was at most 48 h, the “time of plateau of insulin secretion” value ([3]; GLP-1 10 nM, 12 mM glucose) was 72 h and the “concentration of GLP-1 required to induce insulin secretion” value [3, 5] was 1 nM.
